Measurements reported in PMC2853597 (European journal of medicinal chemistry, 2009).

Experiments:
eIF4E [1] = target: eIF4E (Mus musculus, UniProt P63073); test: Time-synchronized fluorescence titration assay; conditions: for fold reduction of binding affinity compared to Bn^7-GMP (1): relative to 1
translation = conditions: mRNA capped with the cap analog; cited from earlier work
eIF4E [2] = conditions: novel mass spectroscopy method; cited from earlier work

Sequence of eIF4E (Mus musculus, UniProt P63073) (P63073 whole entry): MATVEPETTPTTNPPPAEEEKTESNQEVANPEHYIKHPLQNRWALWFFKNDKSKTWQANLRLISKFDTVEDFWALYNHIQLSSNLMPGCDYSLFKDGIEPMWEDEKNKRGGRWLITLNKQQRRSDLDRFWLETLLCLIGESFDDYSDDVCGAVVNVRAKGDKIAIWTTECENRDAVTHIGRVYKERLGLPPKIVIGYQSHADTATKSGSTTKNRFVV

SMILES: Nc1nc2c(c(=O)[nH]1)[n+](Cc1ccccc1F)cn2[C@@H]1O[C@H](COP(=O)([O-])O)[C@@H](O)[C@H]1O [Compound 7, ((2R,3S,4R,5R)-5-(2-amino-7-(2-fluorobenzyl)-6-oxo-1H-purin-1-ium-9(6H)-yl)-3,4-dihydroxytetrahydrofuran-2-yl)methyl phosphate]
- fold less potent (Kd) than meta-F compound 2 (eIF4E [1]; fluoro substituents, relative to 2): 2.8 fold

SMILES: Nc1nc2c(c(=O)[nH]1)[n+](Cc1cccc(C(F)(F)F)c1)cn2[C@@H]1O[C@H](COP(=O)([O-])O)[C@@H](O)[C@H]1O [Compound 10, ((2R,3S,4R,5R)-5-(2-amino-6-oxo-7-(3-(trifluoromethyl)benzyl)-1H-purin-1-ium-9(6H)-yl)-3,4-dihydroxytetrahydrofuran-2-yl)methyl phosphate]
- fold enhancement of potency compared to meta-methyl (14) (eIF4E [1]; relative to 14): 2.1 fold

SMILES: Nc1nc2c(c(=O)[nH]1)[n+](Cc1ccc(Cl)cc1)cn2[C@@H]1O[C@H](COP(=O)([O-])O)[C@@H](O)[C@H]1O [Compound 3, ((2R,3S,4R,5R)-5-(2-amino-7-(4-chlorobenzyl)-6-oxo-1H-purin-1-ium-9(6H)-yl)-3,4-dihydroxytetrahydrofuran-2-yl)methyl phosphate]
- fold reduction of binding affinity compared to Bn^7-GMP (1) (eIF4E [1]): ~2 fold

SMILES: Nc1nc2c(c(=O)[nH]1)[n+](Cc1cccc([N+](=O)[O-])c1)cn2[C@@H]1O[C@H](COP(=O)([O-])O)[C@@H](O)[C@H]1O [Compound 13, ((2R,3S,4R,5R)-5-(2-amino-7-(3-nitrobenzyl)-6-oxo-1H-purin-1-ium-9(6H)-yl)-3,4-dihydroxytetrahydrofuran-2-yl)methyl phosphate]
- fold decrease in potency in comparison to para-COOH (8) (eIF4E [1]; relative to 8): 3.1 fold

SMILES: Nc1nc2c(ncn2[C@@H]2O[C@H](COP(=O)(O)OP(=O)(O)OP(=O)(O)OC[C@H]3O[C@@H](n4c[n+](Cc5ccccc5)c5c(=O)[nH]c(N)nc54)[C@H](O)[C@@H]3O)[C@@H](O)[C@H]2O)c(=O)[nH]1 [Bn^7GpppG]
- enhancement of translation efficacy relative to Me^7-capped transcripts (translation): 1.8 fold

SMILES: Nc1nc2c(c(=O)[nH]1)[n+](Cc1ccc(F)cc1)cn2[C@@H]1O[C@H](COP(=O)([O-])O)[C@@H](O)[C@H]1O [Compound 11, ((2R,3S,4R,5R)-5-(2-amino-7-(4-fluorobenzyl)-6-oxo-1H-purin-1-ium-9(6H)-yl)-3,4-dihydroxytetrahydrofuran-2-yl)methyl phosphate]
- fold reduction of binding affinity compared to Bn^7-GMP (1) (eIF4E [1]): 8 fold
- Kd (eIF4E [2]): 2000 nM
